According to patent US12258578B2, “Agent for accelerating maturation or aging of cells” (JUNTENDO EDUCATIONAL FOUNDATION, priority 2019, dated 2025):
“Also recorded” adds a separate entry of the source.

Legend:
[1] = system: nerve cells induced from human iPS cells; assay: GFP-Synapsin fluorescent reporter screening for nerve cell maturation; format: cell-based; conditions: for acceleration of cell maturation: human iPS cell-derived neurons, same manner as in Example 1
Procedure: (1) A nerve cell cluster (Neurosphere) containing neural stem cells was prepared in suspension culture from iPS cells, passaged six times, and differentiated into nerves. A mature nerve cell-specific fluorescent reporter (GFP-Synapsin) was introduced using a lentiviral vector. Thereafter, the culture was switched to adherent culture, and 10 μM each of the low-molecular compound library (Sigma Aldrich) was added to the culture medium for neural differentiation, and the culture was performed for 17 days. The fluorescence intensity of GFP-Synapsin was quantified using an imaging cytometer (In cell analyzer). Using an astrocyte conditioned medium (ACM), which accelerates neural differentiation, as a control, compounds showing a fluorescence intensity closer to the control were selected (FIG. 1 and FIG. 2).

[2] = system: human iPS cells differentiated into dopaminergic nerve cells; assay: Quantification of Nestin-positive cells during dopaminergic neural differentiation; format: cell-based; conditions: 1, 5 or 10 μM, culture for 10 days
Procedure: (§1) (1) When neural differentiation of human iPS cells into dopaminergic nerve cells was performed, KU-60019 was added to the neural differentiation medium at 1, 5 or 10 μM, followed by culture for 10 days, and the cells expressing Nestin, which is a marker of undifferentiated nervous system, were quantified to evaluate the differentiation efficiency (the culture conditions are shown in FIG. 3).

[3] = system: dopaminergic neurons (DAN) differentiated from human iPS cells; assay: Quantification of tyrosine hydroxylase (TH) positive cells (DAN); format: cell-based; conditions: 1, 5 or 10 μM
Procedure: as §1, with “3). […] (2) In order to compare the amounts of dopaminergic neurons (DAN) differentiated by the same method as in (1), the quantification of tyrosine hydroxylase (TH) positive cells, which is a specific marker of mature DAN, was performed (FIG. 6).” for “3).”

[4] = system: iPS cell-derived nerve cells (DAN); assay: Intracellular NAD+ concentration by colorimetric method; format: cell-based, human; conditions: cells recovered after 10 days
Procedure: (3) The differentiation induction of DAN was performed using the same method as in (2), the cells were recovered after 10 days, and the intracellular NAD^+ concentration was measured using a colorimetric method (FIG. 7).

[5] = system: DAN from human iPS cells; assay: Lamin B1 immunostaining of iPS cell-derived DAN; format: cell-based; conditions: day 7
Procedure: (1) The differentiation induction of DAN from human iPS cells was performed using the same method as in Example 2(2), and immunostaining using a Lamin B1 antibody was performed on day 7 (FIGS. 8-A-C).

[6] = system: DAN from human iPS cells; assay: γH2AX (Ser139) immunostaining of iPS cell-derived DAN; format: cell-based; conditions: day 7
Procedure: (2) The differentiation induction of DAN from human iPS cells was performed using the same method as in Example 2(2), and immunostaining using a γH2AX (Ser139) antibody was performed on day 7 (FIGD. 8-D-F).

[7] = system: PARK4-iPS cell-derived DAN; assay: Cell loss of PARK4-iPS cell-derived DAN (TH antibody); format: cell-based, human
Description: Since KU-60019 accelerates neural differentiation from human iPS cells and cell aging, it was verified whether the culture period required for phenotypic detection in DAN differentiated from Parkinson's disease-iPS cells could be shortened by the addition of KU-60019 to a conventional culture method. The culture periods required until phenotypic detection in the case of addition of KU-60019 and in the case of non-addition of KU-60019 were compared using iPS cells established from a patient with typical PARK 4 (α-synuclein duplication), which develops at a relatively old age (50s and beyond) among hereditary Parkinson's diseases. (1) After performing the differentiation induction of PARK4-iPS cell-derived DAN using the same method as in Example 2(2), the cell loss of DAN was analyzed on days 7 and 10 using a TH antibody.

[8] = system: human fibroblasts derived from a young donor; assay: Aging-specific nuclear membrane abnormalities in human fibroblasts (Lamin B1, Lamin A/C); format: cell-based
Description: The proportion of cells showing normal nuclear membrane structure in fibroblasts derived from a young donor was reduced by the action of KU60019 (mean±SEM, n=6, *p<0.01.) (FIG. 10B). In fibroblasts collected from an old donor, when compared with human fibroblasts collected from a young donor, a decrease in Lamin B1, which is a nuclear membrane marker, as an aging-specific nuclear membrane abnormality is observed.

[9] = system: human fibroblasts derived from a young donor; assay: Aging-specific marker SA-Gal in human fibroblasts; format: cell-based
[10] = system: SHSY5 cells; assay: Cell aging of SHSY5 cells (nuclear membrane staining, qPCR); format: cell-based, human
Description: A decrease in Lamin B1 (LMNB1) mRNA (FIG. 12B), an increase in aging marker p16 mRNA (FIG. 12C) and a […] in aging marker p21 mRNA were detected by qPCR (mean±SEM, n=4, *p<0.01.) (FIG. 12D). That is, also in SHSY5 (immortalized cell line of human nervous system), a breakdown of the nuclear membrane was observed by the addition of KU60019.

SMILES | acceleration of cell maturation [1] | fluorescence intensity of GFP-Synapsin ([1]; 10 μM, 17 days culture, compound library screening) | amount of Nestin-positive cells [2] | TH positive cells (DAN) ([3]; culture continued to day 10) | TH positive cells (DAN) ([3]; day 7 of culture) | intracellular NAD+ concentration [4] | structure of Lamin B1 (nuclear membrane) [5] | γH2AX accumulation (DNA damage) [6] | cell loss of DAN compared to normal control cells ([7]; day 7 of culture) | cell loss of DAN compared to normal control cells ([7]; day 10 of culture) | culture time until Parkinson's disease phenotype is detected ([7]; nerve cells derived from iPS cells of a Parkinson's disease patient) | aging-specific nuclear membrane abnormality (Lamin B1) ([8]; fibroblasts derived from a young donor) | proportion of cells showing normal nuclear membrane structure ([8]; fibroblasts derived from a young donor, n=6, p<0.01) | Lamin B1 (nuclear membrane marker) ([8]; young donor-derived fibroblasts, added for 72 hours) | SA-Gal positive cells [9] | SA-Gal intensity ([9]; n=6, p<0.01) | aging-specific nuclear membrane abnormalities ([10]; SHSY5 cells, Lamin B1 / Lamin A/C staining) | Lamin B1 (LMNB1) mRNA ([10]; qPCR, n=4, p<0.01) | aging marker p16 mRNA ([10]; qPCR, n=4, p<0.01)
O=c1cc(-c2cccc3c2Sc2ccccc2S3)oc(N2CCOCC2)c1 [KU55933] | only in the cells to which KU60019 was added |  |  |  |  |  |  |  |  |  |  |  |  |  |  |  |  |  | 
C[C@@H]1CN(CC(=O)Nc2ccc3c(c2)Cc2cccc(-c4cc(=O)cc(N5CCOCC5)o4)c2S3)C[C@H](C)O1 [KU-60019] | acceleration of cell maturation was observed | highest fluorescence intensity among the compounds selected | decreased depending on the concentration | this difference disappeared | increased depending on the concentration | decreased depending on the concentration | degraded | accumulated in the nucleus | no significant increase in cell loss | lost cells significantly increased | 7 days | reduction of Lamin B1 | reduced | a decrease in Lamin B1 was found | increased to a level equivalent to that in fibroblasts derived from an old donor | increased similarly | aging-specific nuclear membrane abnormalities were caused | decrease | increase; also recorded: significantly elevated
O=c1cc(N2CCOCC2)oc2c(-c3cccc4c3sc3ccccc34)cccc12 [NU7441] | only in the cells to which KU60019 was added |  |  |  |  |  |  |  |  |  |  |  |  |  |  |  |  |  | 
